{"source": "patent US20020197244A1", "about": "“Compositions and methods for regulating phagocytosis and ICAM-1 expression” (priority 1998, published 2002)", "molecules": {"B1": {"name": "STI: Soybean trypsin inhibitor, a serine protease inhibitor capable of affecting the PAR-2 pathway (protein, UniProt P01070 25-205, looked up)", "Trypsin inhibitor A": "DFVLDNEGNPLENGGTYYILSDITAFGGIRAAPTGNERCPLTVVQSRNELDKGIGTIISSPYRIRFIAEGHPLSLKFDSFAVIMLCVGIPTEWSVVEDLPEGPAVKIGENKDAMDGWFRLERVSDDEFNNYKLVFCPQQAEDDKCGDIGISIDHDDGTRRLVVSKNKPLVVQFQKLDKESL"}}, "key": {"[1]": {"system": "Human PMN cells", "assay": "PMN chemotactic migration towards FMLP, Boyden chamber", "type": "cell-based", "settings": "cells counted at 115 microns; PMN pretreated with 5 or 0.5 mg/ml STI or 1 or 0.1 μM Compound I; buffer without FMLP: 19 at 80 μ", "experimental": "Since ICAM-1 is involved in cell migration, cell migration towards a chemotactic peptide was studied in cells treated with Compound I and STI. Human PMN cells were placed in one side of a Boyden chamber, using standard techniques, and a chemotactic peptide (FMLP) was placed in the other chamber. Cells were allowed to migrate into the second chamber, and the number of migrating cells per field and distance of migration were calculated. The experiment was repeated with PMN cells pretreated with one of the following: 5 or 0.5 mg/ml STI, 1 or 0.1 μM Compound I, a buffer vehicle, and with and without chemotactic peptide. The number of cells per field that migrated the same distance as the untreated control was measured. Without the peptide and with no treatment, an average of 19 cells/field were migrating a distance of 80 microns. […] In other words, no cells (or less than 5/field) were identified at 115 microns. […] The ability to inhibit PMN migration is an important constituent of anti-inflammatory compounds."}, "[2]": {"system": "MelanoDerm equivalents", "assay": "Pigmentation in melanocyte-containing epidermal equivalents", "type": "cell-based", "settings": "keratinocyte-melanocyte contact", "experimental": "(§1) Since PAR-2 is expressed in keratinocytes, but not in melanocytes, the possible requirement of keratinocyte-melanocyte contact was tested for the effect of Compound I and SLIGRL on melanosome phagocytosis by the keratinocytes. Primary melanocyte cultures (commercially available from Clonetics, San Diego) were plated under epidermal equivalents (EpiDerm, of MatTek, Ashland, Mass.) to create an equivalent-monolayer co-culture with no contact between keratinocytes and melanocytes. These co-cultures were compared to MelanoDerm equivalents (of MatTek), where melanocytes are present in the basal layer of the equivalent. Cultures were treated with Compound I, with the […], and with the PAR-2 agonist SLIGRL. As set forth in Table 3, keratinocytes are indicated by “K”, melanocytes are indicated by “M”, and lack of keratinocyte-melanocyte contact is indicated as “no K-M cont”. […] The same result was also observed with monolayer keratinocyte/melanocyte co-cultures having keratinocyte/melanocyte contact."}, "[3]": {"system": "human primary keratinocytes", "assay": "Fluorescent microsphere ingestion by human primary keratinocytes", "type": "cell-based", "settings": "treated two days; Compound I 1μM, SLIGRL 10μM; vs vehicle control; FIG. 1", "experimental": "In order to study the role of the PAR-2 pathway in phagocytosis, several in vitro model systems were used. One system used contained primary human keratinocytes or a human keratinocyte cell line. In this and a number of following examples, cells were treated with test compounds for different amounts of time (from one hour to three days), and samples were then incubated with fluorescent microspheres for two hours. The beads ingested by the cells were photographed using fluorescence microscopy.\nIn this example, human primary keratinocytes or the human keratinocyte cell line HaCaT were used as in vitro model systems to study the effect of PAR-2 regulators on keratinocyte phagocytosis. The human primary keratinocytes used are commercially available from Clonetics (San Diego, Calif.). Cells were plated on chamber slides, at 2 chambers/slide and 60,000 cells/chamber. […]\nMicrospheres were also found around the cell, probably because they are non-specifically attached to extracellular-matrix components secreted by the cell. The quantity of the microspheres ingested was changed with the treatments."}, "[4]": {"system": "ICAM-1", "assay": "ICAM-1 immuno-precipitation and Western blotting in keratinocytes", "type": "cell-based", "settings": "treated keratinocytes; FIG. 6B", "experimental": "Immuno-precipitation and Western blotting experiments were performed, according to known methods, to assess the level of ICAM-1 protein in treated keratinocytes."}, "[5]": {"system": "monolayer keratinocyte/melanocyte co-cultures", "assay": "Pigmentation in monolayer keratinocyte/melanocyte co-cultures (K-M contact)", "type": "cell-based", "settings": "keratinocyte-melanocyte contact", "experimental": "as §1"}, "[6]": {"system": "Human keratinocytes", "assay": "Timing of effect on keratinocyte microsphere phagocytosis", "type": "cell-based", "parameters": "key: +: Plus signs indicate an effect on phagocytosis; −: minus signs indicate no effect on phagocytosis; −/+: plus/minus signs indicate a marginal effect on phagocytosis", "settings": "effect = decrease for Compound I, increase for SLIGRL", "experimental": "In this example, human primary keratinocytes or the human keratinocyte cell line HaCaT were used as in vitro model systems to study the effect of PAR-2 regulators on keratinocyte phagocytosis. The human primary keratinocytes used are commercially available from Clonetics (San Diego, Calif.). Cells were plated on chamber slides, at 2 chambers/slide and 60,000 cells/chamber. Cells were treated once daily, for two or three days, with Compound I (1μM), SLIGRL (10μM), or vehicle (Phosphate-buffered saline, (“PBS”) from Gibco-BRL (Gaithersburg, Md.). After two or three days of exposure to the test compounds, cells were exposed to Nile-red or FITC fluorescent microspheres, 1 μm in diameter, 50 microspheres/cell, for two hours at 37° C. Microspheres were from Molecular Probes (Eugene, Oreg.), and were processed according to manufacturer's instructions. Following that treatment, cells were incubated with 15% Fetal Bovine Serum (“FBS”, from Gibco-BRL), for 15 minutes at 37° C. and rinsed with PBS. At that time, chambers were separated from the slides, and the slides were covered with glycerol and coverslips. Fluorescent microscopy was performed using a Zeiss Axiovert 35 or a Nikon Optiphot-2 microscope.\nHuman keratinocytes were treated with Compound I or SLIGRL for periods of time ranging from one hour to two days. At the end of the treatment period, the cells were treated with microspheres as described in Example 1. […] Plus signs indicate an effect on phagocytosis, minus signs indicate no effect on phagocytosis, and plus/minus signs indicate a marginal effect on phagocytosis. The effects measured were a decrease for Compound I and an increase for SLIGRL. […] This implies that the PAR-2 signaling results in new protein synthesis, a reduction in protein synthesis when a turnover time is required to eliminate the existing relevant protein(s), or a rearrangement of proteins (as occurs in the reorganization of cytoskeletal components)."}, "[7]": {"system": "melanocyte cultures plated under epidermal equivalents (EpiDerm)", "assay": "Pigmentation in equivalent-monolayer co-culture (no K-M contact)", "type": "cell-based", "settings": "no keratinocyte-melanocyte contact", "experimental": "as §1"}, "[8]": {"system": "human skin, grafted on immuno-suppressed mice", "assay": "Pigmentation of human skin grafted on immuno-suppressed mice", "type": "in vivo", "experimental": "Human white facial skin samples were grafted on immuno-suppressed mice using standard techniques. About six weeks later grafts of the same individual, grafted on different mice, were treated with vehicle (ethanol: propylene glycol 70:30), or with 50 μM SLIGRL. Treatment was performed daily, 5 days/week. Darkening of the SLIGRL-treated grafts was visually observed during the last weeks of treatment (see FIG. 7A). On day 66, the animals were sacrificed and their skins were analyzed histologically.\nThe same experiment was repeated with black human breast skin samples grafted on immuno-suppressed mice. Grafts of the same individual were treated with vehicle (GDL liposomes) or with 1% STI. GDL liposomes were prepared as set forth in Niemiec, et al., with the exception of the following changes: the non-ionic liposomal formulation contained glycerol dilaurate (Emulsynt GDL, ISP Van Dyk)/cholesterol (Croda)/polyoxyethylene-10-stearyl ether (Brij76, ICI)/polyoxyethylene-9-lauryl ether, at ratio of 37.5:12.5:33.3:16.7. Hepes buffer, 0.05M, pH 7.4 (Gibco-BRL of Gaithersburg, Md.) was used as the aqueous phase in the preparation of the liposomes."}}, "note": "“Also recorded” adds a separate entry of the source.", "data": [{"molecule": "CN[C@H](Cc1ccccc1)C(=O)N1CCCC1C(=O)N[C@@H](CCCNC(=N)N)C(=O)c1nc2ccccc2s1", "note": "(stereo partly drawn) [Compound I, (S)-N-Methyl-D-phenylalanyl-N-[4-[(aminoiminomethyl)amino]-1-(2-benzothiazolylcarbonyl)butyl]-L-prolinamide]", "values": [{"measurement": "Cells/Field", "setting": "[1]", "result": "<5", "unit": "cells/field"}, {"measurement": "level of pigmentation, Epidermal Equivalents (K-M cont.)", "setting": "[2]", "result": "reduced; also recorded: lightening"}, {"measurement": "quantity of ingested microspheres", "setting": "[3]", "result": "dramatic reduction in the quantity of ingested microspheres"}, {"measurement": "level of ICAM-1 protein expression", "setting": "[4]", "result": "decreased the level of ICAM-1 expression"}, {"measurement": "level of pigmentation, Mono-Layer Co-Cultures (K-M cont.)", "setting": "[5]", "result": "lightening"}, {"measurement": "effect on phagocytosis", "setting": "[6]; 1 hour of treatment", "result": "−"}, {"measurement": "effect on phagocytosis", "setting": "[6]; 2 hours of treatment", "result": "−"}, {"measurement": "effect on phagocytosis", "setting": "[6]; 4 hours of treatment", "result": "−"}, {"measurement": "effect on phagocytosis", "setting": "[6]; 6 hours of treatment", "result": "−"}, {"measurement": "effect on phagocytosis", "setting": "[6]; 8 hours of treatment", "result": "−/+"}, {"measurement": "effect on phagocytosis", "setting": "[6]; 16 hours of treatment", "result": "+"}, {"measurement": "effect on phagocytosis", "setting": "[6]; 24 hours of treatment", "result": "+"}, {"measurement": "effect on phagocytosis", "setting": "[6]; 48 hours of treatment", "result": "+"}, {"measurement": "level of pigmentation, Equivalent Monolayer Co-culture (no K-M cont.)", "setting": "[7]", "result": "no effect"}]}, {"molecule": "SLIGRL [reference compound]", "values": [{"measurement": "level of pigmentation, Epidermal Equivalents (K-M cont.)", "setting": "[2]", "result": "induced pigmentation; also recorded: darkening"}, {"measurement": "visual appearance of grafts", "setting": "[8]; white facial skin grafts, 50 μM SLIGRL topical daily, 5 days/week, last weeks of treatment, FIG. 7A", "result": "Darkening"}, {"measurement": "melanin in F&M-stained sections", "setting": "[8]; white facial skin grafts, 50 μM SLIGRL, day 66, FIG. 7B", "result": "increase in melanin"}, {"measurement": "quantity of ingested microspheres", "setting": "[3]", "result": "dramatic increase in the number of ingested microspheres"}, {"measurement": "level of ICAM-1 protein expression", "setting": "[4]", "result": "increased the level of ICAM-1 expression"}, {"measurement": "level of pigmentation, Mono-Layer Co-Cultures (K-M cont.)", "setting": "[5]", "result": "darkening"}, {"measurement": "effect on phagocytosis", "setting": "[6]; 1 hour of treatment", "result": "−"}, {"measurement": "effect on phagocytosis", "setting": "[6]; 2 hours of treatment", "result": "−"}, {"measurement": "effect on phagocytosis", "setting": "[6]; 4 hours of treatment", "result": "−"}, {"measurement": "effect on phagocytosis", "setting": "[6]; 6 hours of treatment", "result": "−"}, {"measurement": "effect on phagocytosis", "setting": "[6]; 8 hours of treatment", "result": "−/+"}, {"measurement": "effect on phagocytosis", "setting": "[6]; 16 hours of treatment", "result": "+"}, {"measurement": "effect on phagocytosis", "setting": "[6]; 24 hours of treatment", "result": "+"}, {"measurement": "effect on phagocytosis", "setting": "[6]; 48 hours of treatment", "result": "+"}, {"measurement": "level of pigmentation, Equivalent Monolayer Co-culture (no K-M cont.)", "setting": "[7]", "result": "no effect"}]}, {"molecule": "B1", "values": [{"measurement": "Cells/Field", "setting": "[1]", "result": "<5", "unit": "cells/field"}, {"measurement": "pigmentation in F&M-stained skin sections", "setting": "[8]; black breast skin grafts, 1% STI in GDL liposomes, FIG. 7C", "result": "reduce pigmentation in human skin"}]}]}
